One experiment has as its target T1, TAFIa (Homo sapiens, UniProt Q96IY4).
T1 sequence (Q96IY4 115-423): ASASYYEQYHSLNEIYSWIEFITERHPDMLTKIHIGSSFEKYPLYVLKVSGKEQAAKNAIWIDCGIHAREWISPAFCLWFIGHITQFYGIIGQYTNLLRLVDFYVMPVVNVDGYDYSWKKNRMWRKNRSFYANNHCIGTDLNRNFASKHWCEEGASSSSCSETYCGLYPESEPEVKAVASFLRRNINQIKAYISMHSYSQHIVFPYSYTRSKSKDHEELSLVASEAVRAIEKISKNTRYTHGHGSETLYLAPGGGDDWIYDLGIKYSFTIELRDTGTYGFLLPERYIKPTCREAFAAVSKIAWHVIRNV
Put plainly: Assay for TAFIa inhibition (Ki determination, FAAL substrate hydrolysis). The class given is biochemical. As to conditions: calculated from IC50 using the Cheng-Prusoff equation, activated human TAFI, 24° C. The protocol: The compounds of the present invention may be tested using the following assay, which is based on that disclosed in Boffa et al., J. Biol. Chem. 1998, 273, 2127. The compounds are incubated with activated TAFI and a standard substrate for TAFIa, the rate of hydrolysis of the substrate is determined and compared to the rate of hydrolysis in the absence of the compounds, and the amount of inhibition expressed in terms of Ki.
Human TAFI (recombinant or purified) was activated by incubating 20 μl of stock solution (360 μg/ml) with 10 μl of human thrombin (10 NIH units/ml), 10 μl of rabbit thrombomodulin (30 μg/ml), 6 μl calcium chloride (50 mM) in 50 μL of 20 mM HEPES (N-[2-hydroxyethyl]piperazine-N-[2-ethanesulfonic acid]) buffer containing 150 mM sodium chloride and 0.01% TWEEN 80 (polyoxyethylene-sorbitan monooleate) pH 7.6 for 20 minutes at 22° C. At the end of the incubation period, thrombin was neutralised by the addition of 10 μL of PPACK (D-Phe-Pro-Arg chloromethyl ketone) (100 nM). The resulting TAFIa solution was stored on ice for 5 minutes and finally diluted with 175 μl of HEPES buffer.
ii) Ki Determination (TAFIa)
(§1) A number of different dilutions of the test compound in water were made up. To 20 μl of each dilution was added 150 μl of HEPES buffer and 10 μl of TAFIa, which was then pre-incubated for 15 minutes at 24° C. To each dilution was then added 20 μl furylacryloyl-alanyl-lysine (FAAL) at a standard concentration. Substrate turnover was measured by reading the absorbance of the reaction mixture at 330 nm every 15 seconds for 30 minutes. The reaction was performed at 24° C. and samples were mixed for 3 seconds prior to each absorbance reading.
(§2) A graph of % inhibition against test compound concentration was then plotted; from which was calculated the IC50 value. The Ki value was then calculated using the Cheng-Prusoff equation.
Two controls, positive and negative, were used to check the accuracy of the results in each case. For the first control, the assay was performed as above, but with 20 μl of water rather than a dilution of the test compound. […] For the second control, the assay was performed as above, but with an effective amount of a non specific carboxypeptidase inhibitor rather than a dilution of the test compound.

Another experiment deals with T2, human CPN (Homo sapiens, UniProt P15169).
T2 sequence (P15169 21-458): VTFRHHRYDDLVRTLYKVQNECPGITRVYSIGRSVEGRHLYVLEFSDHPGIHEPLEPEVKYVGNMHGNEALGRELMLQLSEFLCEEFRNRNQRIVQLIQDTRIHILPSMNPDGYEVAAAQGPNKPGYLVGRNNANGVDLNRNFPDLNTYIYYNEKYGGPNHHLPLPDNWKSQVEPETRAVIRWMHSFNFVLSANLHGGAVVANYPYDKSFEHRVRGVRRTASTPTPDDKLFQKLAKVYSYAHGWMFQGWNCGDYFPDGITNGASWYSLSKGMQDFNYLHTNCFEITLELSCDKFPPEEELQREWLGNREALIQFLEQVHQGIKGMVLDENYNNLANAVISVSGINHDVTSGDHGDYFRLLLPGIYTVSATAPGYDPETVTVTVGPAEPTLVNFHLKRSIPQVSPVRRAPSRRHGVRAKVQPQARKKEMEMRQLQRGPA
T2 sequence (P22792 22-545 partner): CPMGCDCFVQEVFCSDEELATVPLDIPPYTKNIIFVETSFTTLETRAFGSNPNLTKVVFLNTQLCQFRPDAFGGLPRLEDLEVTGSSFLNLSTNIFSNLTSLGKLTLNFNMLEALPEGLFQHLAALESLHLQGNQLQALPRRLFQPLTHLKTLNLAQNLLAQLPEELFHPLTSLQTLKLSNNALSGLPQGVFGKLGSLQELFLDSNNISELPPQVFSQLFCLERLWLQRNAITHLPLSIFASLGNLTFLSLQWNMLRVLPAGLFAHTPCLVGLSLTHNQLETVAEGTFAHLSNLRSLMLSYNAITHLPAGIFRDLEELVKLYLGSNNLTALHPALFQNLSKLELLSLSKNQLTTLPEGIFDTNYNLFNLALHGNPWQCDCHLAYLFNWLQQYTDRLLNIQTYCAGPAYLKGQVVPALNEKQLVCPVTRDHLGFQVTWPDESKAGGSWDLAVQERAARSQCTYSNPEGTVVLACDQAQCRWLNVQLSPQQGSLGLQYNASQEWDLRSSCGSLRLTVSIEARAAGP
Kind of experiment: CPN Ki determination (TAFIa assay with human CPN substituted for TAFIa). Type of experiment: biochemical. As to conditions: for pKi: human CPN substituted for TAFIa, calculated Ki; for Selectivity: selectivity for TAFIa over CPN, comparing Ki for CPN with Ki for TAFIa. As for the experimental part:
as §1, §2
The selectivity of the compounds of the present invention for TAFIa over CPN was determined by calculating the Ki of the compounds of the present invention for CPN, then comparing it to the Ki for TAFIa. The Ki was calculated using the assay for the calculation of TAFIa Ki, but substituting 10 μl of human CPN for 10 μl of TAFIa.

pKi: −log10 of the molar value. Where only a bound is given, the exact number is not on record here.

Usually pKi stands for the negative decadic logarithm of the Ki, by convention in mol/L. `N[C@H]1CCN([C@@H](Cc2c[nH]cn2)C(=O)O)C1` [Example 2, (+)-(2S)-2-[(3S)-3-Aminopyrrolidinyl]-3-(1H-imidazol-4-yl)propanoic Acid]: the pKi at TAFIa is 7.22. With `CCCn1cnc(C[C@@H](C(=O)O)N2CC[C@H](N)C2)c1` [Example 4, (+)-(2S)-2-[(3S)-3-Aminopyrrolidinyl]-3-(1-propyl-1H-imidazol-4-yl)propanoic Acid], on human CPN, the negative logarithm of the Ki (pKi) was less than 5.00 and the Selectivity is recorded as greater than 450. The negative-log Ki (pKi) at TAFIa is 7.66. In the case of `N[C@H]1CCN([C@@H](Cc2cn(CCC3CCCCC3)cn2)C(=O)O)C1` [Example 6, (+)-(2S)-2-[(3S)-3-Aminopyrrolidinyl]-3-[1-(2-cyclohexylethyl)-1H-imidazol-4-yl]propanoic Acid], at human CPN, the negative-log Ki (pKi) is less than 5.00 and the Selectivity is greater than 1400. Moreover, the negative-log Ki (pKi) on TAFIa was 8.15. Take `N[C@H]1CCN([C@@H](Cc2cn(CCc3ccccc3)cn2)C(=O)O)C1` [Example 8, (+)-(2S)-2-[(3S)-3-Aminopyrrolidinyl]-3-[1-(2-phenylethyl)-1H-imidazol-4-yl]propanoic Acid]: the pKi on TAFIa is 8.00.

With `N[C@H]1CCN([C@@H](Cc2cn(-c3ccccc3)cn2)C(=O)O)C1` [Example 9, (+)-(2S)-2-[(3S)-3-Aminopyrrolidinyl]-3-[1-phenyl-1H-imidazol-4-yl]propanoic Acid], the pKi at TAFIa was 8.10.
